Results as given in ChEMBL document CHEMBL1201862, “PubChem BioAssay data set” (2004).
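Following 48 hours of exposure in 96-well plates, responses at five concentrations were used to interpolate endpoints linearly. GI50 marks 50% less growth.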 Active and inactive are the calls of the source. Rule as the data show it: active = GI50 up to about 1.1 µM and inactive = higher.

Columns and labels:
Assay in all cases: DTP human tumour cell line panel, 48 h
SK-OV-3 = test system: SK-OV-3
HT-29 = test system: HT-29
UO-31 = test system: UO-31
SK-MEL-28 = test system: SK-MEL-28
M14 = test system: M14
HL-60 = test system: HL-60
A498 = test system: A498
OVCAR-8 = test system: OVCAR-8
OVCAR-4 = test system: OVCAR-4
CCRF-CEM = test system: CCRF-CEM
KM-20L2 = test system: KM-20L2
SK-MEL-5 = test system: SK-MEL-5
SK-MEL-2 = test system: SK-MEL-2
IGROV-1 = test system: IGROV-1
HCT-15 = test system: HCT-15
DLD-1 = test system: DLD-1
LXFL 529 = test system: LXFL 529
SF-295 = test system: SF-295
M19-MEL = test system: M19-MEL
HOP-62 = test system: HOP-62
HOP-18 = test system: HOP-18
SF-539 = test system: SF-539
SF-268 = test system: SF-268
EKVX = test system: EKVX
RPMI-8226 = test system: RPMI-8226
SNB-78 = test system: SNB-78
UACC-62 = test system: UACC-62
KM12 = test system: KM12
UACC-257 = test system: UACC-257
NCI-H522 = test system: NCI-H522
NCI-H23 = test system: NCI-H23
SNB-19 = test system: SNB-19
HOP-92 = test system: HOP-92
TK-10 = test system: TK-10
K562 = test system: K562
HCT-116 = test system: HCT-116
MOLT-4 = test system: MOLT-4
CAKI-1 = test system: CAKI-1
SN12C = test system: SN12C
COLO 205 = test system: COLO 205
U-251 = test system: U-251
LOX IMVI = test system: LOX IMVI
SW-620 = test system: SW-620
NCI-H460 = test system: NCI-H460
786-0 = test system: 786-0
OVCAR-5 = test system: OVCAR-5
OVCAR-3 = test system: OVCAR-3
A549 = test system: A549
SNB-75 = test system: SNB-75
ACHN = test system: ACHN
XF498 = test system: XF498
Malme-3M = test system: Malme-3M
DMS-114 = test system: DMS-114
DMS-273 = test system: DMS-273
HCC 2998 = test system: HCC 2998
SR = test system: SR
NCI-H226 = test system: NCI-H226
RXF 393 = test system: RXF 393

Compound: CCCN1CN(C(C(=O)N[C@@H]2C(=O)N3C2SC(C)(C)C3C(=O)O)c2ccccc2)CSC1=S (some centres not stated)
- GI50 (SK-OV-3): > 100 µM (inactive)
- GI50 (HT-29): 48.1 µM (inactive)
- GI50 (UO-31): > 100 µM (inactive)
- GI50 (SK-MEL-28): > 100 µM (inactive)
- GI50 (M14): > 100 µM (inactive)
- GI50 (HL-60): 48 µM (inactive)
- GI50 (A498): > 100 µM (inactive)
- GI50 (OVCAR-8): > 100 µM (inactive)
- GI50 (OVCAR-4): > 100 µM (inactive)
- GI50 (CCRF-CEM): 95.9 µM (inactive)
- GI50 (KM-20L2): > 100 µM (inactive)
- GI50 (SK-MEL-5): > 100 µM (inactive)
- GI50 (SK-MEL-2): > 100 µM (inactive)
- GI50 (IGROV-1): > 100 µM (inactive)
- GI50 (HCT-15): 80.5 µM
- GI50 (DLD-1): 84.1 µM (inactive)
- GI50 (LXFL 529): 70.5 µM (inactive)
- GI50 (SF-295): > 100 µM (inactive)
- GI50 (M19-MEL): > 100 µM (inactive)
- GI50 (HOP-62): > 100 µM (inactive)
- GI50 (HOP-18): > 100 µM (inactive)
- GI50 (SF-539): > 100 µM (inactive)
- GI50 (SF-268): > 100 µM (inactive)
- GI50 (EKVX): > 100 µM (inactive)
- GI50 (RPMI-8226): 53.6 µM (inactive)
- GI50 (SNB-78): > 100 µM (inactive)
- GI50 (UACC-62): > 100 µM (inactive)
- GI50 (KM12): > 100 µM (inactive)
- GI50 (UACC-257): > 100 µM (inactive)
- GI50 (NCI-H522): 23.1 µM (inactive)
- GI50 (NCI-H23): > 100 µM (inactive)
- GI50 (SNB-19): > 100 µM (inactive)
- GI50 (HOP-92): > 100 µM (inactive)
- GI50 (TK-10): > 100 µM (inactive)
- GI50 (K562): 41.6 µM (inactive)
- GI50 (HCT-116): 57.1 µM (inactive)
- GI50 (MOLT-4): > 100 µM (inactive)
- GI50 (CAKI-1): > 100 µM (inactive)
- GI50 (SN12C): > 100 µM (inactive)
- GI50 (COLO 205): 23.6 µM (inactive)
- GI50 (U-251): > 100 µM (inactive)
- GI50 (LOX IMVI): 50.9 µM (inactive)
- GI50 (SW-620): 16.4 µM (inactive)
- GI50 (NCI-H460): > 100 µM (inactive)
- GI50 (786-0): > 100 µM (inactive)
- GI50 (OVCAR-5): > 100 µM (inactive)
- GI50 (OVCAR-3): 32.2 µM (inactive)
- GI50 (A549): > 100 µM (inactive)
- GI50 (SNB-75): > 100 µM (inactive)
- GI50 (ACHN): > 100 µM (inactive)
- GI50 (XF498): > 100 µM (inactive)
- GI50 (Malme-3M): > 100 µM (inactive)
- GI50 (DMS-114): 54 µM (inactive)
- GI50 (DMS-273): 48.8 µM (inactive)

Compound: CCOC(=O)[C@H]1Nc2ccc(Cl)cc2[C@H]2CCC[C@@H]12
- GI50 (HT-29): 36.7 µM (inactive)
- GI50 (UO-31): 99.8 µM (inactive)
- GI50 (SK-MEL-28): > 100 µM (inactive)
- GI50 (M14): > 100 µM (inactive)
- GI50 (OVCAR-8): > 100 µM (inactive)
- GI50 (OVCAR-4): 56.9 µM (inactive)
- GI50 (KM-20L2): > 100 µM (inactive)
- GI50 (SK-MEL-5): 71.6 µM (inactive)
- GI50 (SK-MEL-2): > 100 µM (inactive)
- GI50 (HCC 2998): > 100 µM (inactive)
- GI50 (IGROV-1): > 100 µM (inactive)
- GI50 (HCT-15): > 100 µM
- GI50 (SR): > 100 µM (inactive)
- GI50 (DLD-1): > 100 µM (inactive)
- GI50 (LXFL 529): > 100 µM (inactive)
- GI50 (SF-295): 55.3 µM (inactive)
- GI50 (M19-MEL): > 100 µM (inactive)
- GI50 (HOP-62): > 100 µM (inactive)
- GI50 (HOP-18): 53.2 µM (inactive)
- GI50 (SF-539): > 100 µM (inactive)
- GI50 (SF-268): > 100 µM (inactive)
- GI50 (EKVX): 92.3 µM (inactive)
- GI50 (RPMI-8226): > 100 µM (inactive)
- GI50 (SNB-78): > 100 µM (inactive)
- GI50 (UACC-62): > 100 µM (inactive)
- GI50 (KM12): > 100 µM (inactive)
- GI50 (UACC-257): 22 µM (inactive)
- GI50 (NCI-H522): 31.5 µM (inactive)
- GI50 (NCI-H23): > 100 µM (inactive)
- GI50 (SNB-19): > 100 µM (inactive)
- GI50 (TK-10): > 100 µM (inactive)
- GI50 (K562): > 100 µM (inactive)
- GI50 (HCT-116): > 100 µM (inactive)
- GI50 (MOLT-4): > 100 µM (inactive)
- GI50 (CAKI-1): 86.9 µM (inactive)
- GI50 (SN12C): > 100 µM (inactive)
- GI50 (NCI-H226): > 100 µM (inactive)
- GI50 (COLO 205): > 100 µM (inactive)
- GI50 (U-251): > 100 µM (inactive)
- GI50 (LOX IMVI): > 100 µM (inactive)
- GI50 (SW-620): > 100 µM (inactive)
- GI50 (NCI-H460): > 100 µM (inactive)
- GI50 (786-0): > 100 µM (inactive)
- GI50 (OVCAR-5): 63.5 µM (inactive)
- GI50 (OVCAR-3): 61.4 µM (inactive)
- GI50 (A549): 88.3 µM (inactive)
- GI50 (SNB-75): 72.3 µM (inactive)
- GI50 (ACHN): > 100 µM (inactive)
- GI50 (XF498): > 100 µM (inactive)
- GI50 (RXF 393): 17.9 µM (inactive)
- GI50 (Malme-3M): > 100 µM (inactive)
- GI50 (DMS-114): 95.3 µM (inactive)
- GI50 (DMS-273): > 100 µM (inactive)
